Test results: patent publication US9931347B2, “Pharmaceutical compound” (IOmet Pharma Ltd., priority 2013, dated 2018)

What follows are compounds tested against T1, TDO (A172 human glioblastoma cells) (Homo sapiens, UniProt P48775) (assay: A172 Kynurenine cell based assay). Conditions: 500 μM L-tryptophan, 48 hours, kynurenine by Erhlich's reagent.
T1 construct: This assay utilised cancer cells which expressed either TDO or IDO; endogenous in cells; host or cells: A172 human glioblastoma cells
Experimental: (§1) Exemplary compounds of the invention were prepared, and tested to determine their effect as TDO and/or IDO inhibitors. Two different assays were employed: 1. a cell-based assay for detecting the effect of test compounds on kynurenine production in two different cancer cell types. This assay utilised cancer cells which expressed either TDO or IDO and as such was used as a means of testing compound activity at these two enzymes in a cell-based context. 2. a TDO and IDO biochemical coupled assay which utilised recombinantly produced and purified TDO and IDO enzymes in combination with the enzyme formamidase. This coupled enzyme system allowed conversion of N-formylkynurenine produced by TDO or IDO activity to kynurenine which was then quantified by fluorescence following addition of Erhlich's Reagent The protocols for these are set out below.
A172 (human glioblastoma) and SKOV3 (human ovarian adenocarcinoma) cells were seeded in a 96 well plate at 30,000 or 40,000 cells per well respectively in phenol red-free RPMI supplemented with 10% FCS, 2 mM L-glutamine and 500 μM L-tryptophan. IDO expression was induced in the SKOV3 cells by the addition of 500 ng/ml IFN-γ. Cells were incubated at 37° C. with or without the addition of test compound. After 48 hours, the cells were removed by centrifugation and Erhlich's reagent was added to the supernatant. The Erhlich's reagent was incubated for 5 minutes before the absorbance was read at 490 nm.

T1 sequence (P48775 whole entry): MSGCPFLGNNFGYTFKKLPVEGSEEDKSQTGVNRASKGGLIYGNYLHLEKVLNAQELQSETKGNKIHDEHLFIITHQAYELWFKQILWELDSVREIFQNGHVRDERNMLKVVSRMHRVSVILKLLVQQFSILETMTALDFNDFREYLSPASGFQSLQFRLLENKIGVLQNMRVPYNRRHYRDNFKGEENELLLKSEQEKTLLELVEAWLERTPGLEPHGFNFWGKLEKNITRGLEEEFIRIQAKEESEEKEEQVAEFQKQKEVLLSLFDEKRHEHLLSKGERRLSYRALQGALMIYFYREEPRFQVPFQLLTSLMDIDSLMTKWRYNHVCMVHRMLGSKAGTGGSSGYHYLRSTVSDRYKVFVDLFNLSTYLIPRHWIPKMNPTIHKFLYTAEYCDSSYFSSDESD

Compound	A172 Kynurenine cell based assay pIC50
Cc1cccc2c(C3CCN(S(=O)(=O)c4cc(F)c(F)cc4Cl)CC3)c[nH]c12 [Compound 38]	+ (+ = pIC50 4.00-4.99)
Cc1cc(S(=O)(=O)N2CCC(c3c[nH]c4ccc(F)cc34)CC2)c(Cl)cc1Cl [Compound 39]	+ (+ = pIC50 4.00-4.99)
Cc1cccc2c(C3CCN(S(=O)(=O)c4ccc(C(C)(C)C)cc4)CC3)c[nH]c12 [Compound 40]	+ (+ = pIC50 4.00-4.99)
Cc1cccc2c(C3CCN(C(=O)c4cnn(-c5ccccc5)c4C(F)(F)F)CC3)c[nH]c12 [Compound 41]	+ (+ = pIC50 4.00-4.99)
COc1ccc2[nH]cc(C3CCN(S(=O)(=O)c4ccc(C(F)(F)F)cc4Cl)CC3)c2c1 [Compound 43]	+ (+ = pIC50 4.00-4.99)
COc1ccc(Cl)cc1S(=O)(=O)N1CCC(c2c[nH]c3c(C)cccc23)CC1 [Compound 45]	+ (+ = pIC50 4.00-4.99)
Cc1cccc2c(C3CCN(S(=O)(=O)c4cccc(C(F)(F)F)c4)CC3)c[nH]c12 [Compound 46]	+ (+ = pIC50 4.00-4.99)
CCCc1ccc(S(=O)(=O)N2CCC(c3c[nH]c4c(C)cccc34)CC2)cc1 [Compound 48]	+ (+ = pIC50 4.00-4.99)
Cc1cccc2c(C3CCN(S(=O)(=O)c4ccccc4S(C)(=O)=O)CC3)c[nH]c12 [Compound 49]	++ (++ = pIC50 5.00-5.99)
CCc1cc(Br)ccc1S(=O)(=O)N1CCC(c2c[nH]c3ccc(C)cc23)CC1 [Compound 50]	+ (+ = pIC50 4.00-4.99)
O=S(=O)(c1ccccc1OC(F)(F)F)N1CCC(c2c[nH]c3ccc(F)cc23)CC1 [Compound 51]	+ (+ = pIC50 4.00-4.99)
CC(=O)Nc1ccc(S(=O)(=O)N2CCC(c3c[nH]c4ccccc34)CC2)cc1Cl [Compound 52]	+− (+− = pIC50 <4.00)
COc1ccc2[nH]cc(C3CCN(S(=O)(=O)c4cccc(OC(F)(F)F)c4)CC3)c2c1 [Compound 53]	+ (+ = pIC50 4.00-4.99)
CC(=O)N1CCN(c2c[nH]c3ccccc23)CC1 [Compound 107]	+ (+ = pIC50 4.00-4.99)
COc1cccc(C(=O)N2CCC(c3c[nH]c4cc(F)ccc34)CC2)n1 [Compound 273]	+ (+ = pIC50 4.00-4.99)
O=C(C1CC(=O)N(C2CCCC2)C1)N1CCC(c2c[nH]c3cc(F)ccc23)CC1 (centres unmarked) [Compound 276]	+ (+ = pIC50 4.00-4.99)
CCCc1cc(C(=O)N2CCC(c3c[nH]c4cc(F)ccc34)CC2)[nH]n1 [Compound 277]	+ (+ = pIC50 4.00-4.99)
Cn1nc(-c2ccccc2)cc1C(=O)N1CCC(c2c[nH]c3cc(F)ccc23)CC1 [Compound 279]	+ (+ = pIC50 4.00-4.99)
CCCn1cc(C(=O)N2CCC(c3c[nH]c4cc(F)ccc34)CC2)c(C)n1 [Compound 280]	++ (++ = pIC50 5.00-5.99)
O=C(N1CCC(c2c[nH]c3cc(F)ccc23)CC1)C1(c2ccccc2)CC1 [Compound 281]	+ (+ = pIC50 4.00-4.99)
COCCN1CC(C(=O)N2CCC(c3c[nH]c4cc(F)ccc34)CC2)CC1=O (centres unmarked) [Compound 283]	+ (+ = pIC50 4.00-4.99)
O=C(CC1CC1)N1CCC(c2c[nH]c3cc(F)ccc23)CC1 [Compound 284]	+ (+ = pIC50 4.00-4.99)
CC(C)S(=O)(=O)N1CCC(c2c[nH]c3cc(F)ccc23)CC1 [Compound 289]	++ (++ = pIC50 5.00-5.99)
O=S(=O)(C1CCCC1)N1CCC(c2c[nH]c3cc(F)ccc23)CC1 [Compound 291]	++ (++ = pIC50 5.00-5.99)
O=S(=O)(Cc1ccccc1)N1CCC(c2c[nH]c3cc(F)ccc23)CC1 [Compound 293]	++ (++ = pIC50 5.00-5.99)
O=S(=O)(N1CCC(c2c[nH]c3cc(F)ccc23)CC1)C(F)(F)F [Compound 296]	++ (++ = pIC50 5.00-5.99)
CC(=O)N1CCN(c2c[nH]c3ccccc23)CC1(C)C [Compound 299]	++ (++ = pIC50 5.00-5.99)
Fc1ccc2c(C3CCN(c4ccncc4)CC3)c[nH]c2c1 [Compound 301]	+ (+ = pIC50 4.00-4.99)
CC(=O)N1CCC(c2c[nH]c3cc(F)ccc23)CC1(C)C (centres unmarked) [Compound 316]	++ (++ = pIC50 5.00-5.99)
CC1(C)CC(c2c[nH]c3cc(F)ccc23)CCN1S(C)(=O)=O (centres unmarked) [Compound 317]	++ (++ = pIC50 5.00-5.99)

The compounds below were run against Recombinant human IDO (Homo sapiens, UniProt P14902) (assay: hIDO biochemical coupled assay). Conditions: 45 μM L-tryptophan, coupled with kynurenine formamidase.
Sequence of Recombinant human IDO (P14902 whole entry): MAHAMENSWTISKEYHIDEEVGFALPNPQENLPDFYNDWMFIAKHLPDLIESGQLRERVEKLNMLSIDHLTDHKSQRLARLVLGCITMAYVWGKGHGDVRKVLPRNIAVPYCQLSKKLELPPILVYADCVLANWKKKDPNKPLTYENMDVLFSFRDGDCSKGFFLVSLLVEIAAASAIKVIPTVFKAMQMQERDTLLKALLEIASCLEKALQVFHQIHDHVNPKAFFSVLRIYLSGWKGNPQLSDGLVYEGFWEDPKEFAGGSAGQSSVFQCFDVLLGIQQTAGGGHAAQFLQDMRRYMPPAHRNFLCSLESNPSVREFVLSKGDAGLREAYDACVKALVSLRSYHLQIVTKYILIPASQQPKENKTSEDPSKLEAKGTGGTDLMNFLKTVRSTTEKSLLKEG
Experimental: as §1
Recombinant human IDO or TDO was incubated in 50 mM KPO4 (pH 7.0), 0.5 mM EGTA, 0.5 mM EDTA, 0.05% Triton™ X100, 20 mM ascorbate, 10 μM methylene blue, 500 U/ml catalase, 50 μg/ml KynB (kynurenine formamidase).

Compound	hIDO biocehmical assay pIC50
Cc1cccc2c(C3CCN(S(=O)(=O)c4cc(F)c(F)cc4Cl)CC3)c[nH]c12 [Compound 38]	+− (+− = pIC50 <4.00)
Cc1cc(S(=O)(=O)N2CCC(c3c[nH]c4ccc(F)cc34)CC2)c(Cl)cc1Cl [Compound 39]	+− (+− = pIC50 <4.00)
Cc1cccc2c(C3CCN(S(=O)(=O)c4ccc(C(C)(C)C)cc4)CC3)c[nH]c12 [Compound 40]	+− (+− = pIC50 <4.00)
Cc1cccc2c(C3CCN(C(=O)c4cnn(-c5ccccc5)c4C(F)(F)F)CC3)c[nH]c12 [Compound 41]	+− (+− = pIC50 <4.00)
COc1ccc2[nH]cc(C3CCN(S(=O)(=O)c4ccc(C(F)(F)F)cc4Cl)CC3)c2c1 [Compound 43]	+− (+− = pIC50 <4.00)
COc1ccc(Cl)cc1S(=O)(=O)N1CCC(c2c[nH]c3c(C)cccc23)CC1 [Compound 45]	+− (+− = pIC50 <4.00)
Cc1cccc2c(C3CCN(S(=O)(=O)c4cccc(C(F)(F)F)c4)CC3)c[nH]c12 [Compound 46]	+− (+− = pIC50 <4.00)
CCCc1ccc(S(=O)(=O)N2CCC(c3c[nH]c4c(C)cccc34)CC2)cc1 [Compound 48]	+− (+− = pIC50 <4.00)
Cc1cccc2c(C3CCN(S(=O)(=O)c4ccccc4S(C)(=O)=O)CC3)c[nH]c12 [Compound 49]	+− (+− = pIC50 <4.00)
CCc1cc(Br)ccc1S(=O)(=O)N1CCC(c2c[nH]c3ccc(C)cc23)CC1 [Compound 50]	+− (+− = pIC50 <4.00)
O=S(=O)(c1ccccc1OC(F)(F)F)N1CCC(c2c[nH]c3ccc(F)cc23)CC1 [Compound 51]	+− (+− = pIC50 <4.00)
CC(=O)Nc1ccc(S(=O)(=O)N2CCC(c3c[nH]c4ccccc34)CC2)cc1Cl [Compound 52]	+− (+− = pIC50 <4.00)
COc1ccc2[nH]cc(C3CCN(S(=O)(=O)c4cccc(OC(F)(F)F)c4)CC3)c2c1 [Compound 53]	+− (+− = pIC50 <4.00)
CC(=O)N1CCN(c2c[nH]c3ccccc23)CC1 [Compound 107]	+− (+− = pIC50 <4.00)

These compounds were tested against T2, IDO (SKOV3 human ovarian adenocarcinoma cells, IFN-γ induced) (Homo sapiens, UniProt P14902) (assay: SKOV3 Kynurenine cell based assay). Conditions: IDO induced by 500 ng/ml IFN-γ, 500 μM L-tryptophan, 48 hours.
T2 construct: IDO expression was induced in the SKOV3 cells by the addition of 500 ng/ml IFN-γ; endogenous in cells; host or cells: SKOV3 human ovarian adenocarcinoma cells, induced with IFN-γ
T2 sequence (P14902 whole entry): as above
Experimental: as §1
A172 (human glioblastoma) and SKOV3 (human ovarian adenocarcinoma) cells were seeded in a 96 well plate at 30,000 or 40,000 cells per well respectively in phenol red-free RPMI supplemented with 10% FCS, 2 mM L-glutamine and 500 μM L-tryptophan. IDO expression was induced in the SKOV3 cells by the addition of 500 ng/ml IFN-γ. Cells were incubated at 37° C. with or without the addition of test compound. After 48 hours, the cells were removed by centrifugation and Erhlich's reagent was added to the supernatant.

Compound	SKOV3 Kynurenine cell based assay pIC50
Cc1cccc2c(C3CCN(S(=O)(=O)c4cc(F)c(F)cc4Cl)CC3)c[nH]c12 [Compound 38]	+− (+− = pIC50 <4.00)
Cc1cc(S(=O)(=O)N2CCC(c3c[nH]c4ccc(F)cc34)CC2)c(Cl)cc1Cl [Compound 39]	+ (+ = pIC50 4.00-4.99)
Cc1cccc2c(C3CCN(S(=O)(=O)c4ccc(C(C)(C)C)cc4)CC3)c[nH]c12 [Compound 40]	+− (+− = pIC50 <4.00)
Cc1cccc2c(C3CCN(C(=O)c4cnn(-c5ccccc5)c4C(F)(F)F)CC3)c[nH]c12 [Compound 41]	+ (+ = pIC50 4.00-4.99)
COc1ccc2[nH]cc(C3CCN(S(=O)(=O)c4ccc(C(F)(F)F)cc4Cl)CC3)c2c1 [Compound 43]	+ (+ = pIC50 4.00-4.99)
COc1ccc(Cl)cc1S(=O)(=O)N1CCC(c2c[nH]c3c(C)cccc23)CC1 [Compound 45]	+ (+ = pIC50 4.00-4.99)
Cc1cccc2c(C3CCN(S(=O)(=O)c4cccc(C(F)(F)F)c4)CC3)c[nH]c12 [Compound 46]	+− (+− = pIC50 <4.00)
CCCc1ccc(S(=O)(=O)N2CCC(c3c[nH]c4c(C)cccc34)CC2)cc1 [Compound 48]	+ (+ = pIC50 4.00-4.99)
Cc1cccc2c(C3CCN(S(=O)(=O)c4ccccc4S(C)(=O)=O)CC3)c[nH]c12 [Compound 49]	+ (+ = pIC50 4.00-4.99)
CCc1cc(Br)ccc1S(=O)(=O)N1CCC(c2c[nH]c3ccc(C)cc23)CC1 [Compound 50]	+ (+ = pIC50 4.00-4.99)
O=S(=O)(c1ccccc1OC(F)(F)F)N1CCC(c2c[nH]c3ccc(F)cc23)CC1 [Compound 51]	+ (+ = pIC50 4.00-4.99)
CC(=O)Nc1ccc(S(=O)(=O)N2CCC(c3c[nH]c4ccccc34)CC2)cc1Cl [Compound 52]	+ (+ = pIC50 4.00-4.99)
COc1ccc2[nH]cc(C3CCN(S(=O)(=O)c4cccc(OC(F)(F)F)c4)CC3)c2c1 [Compound 53]	+ (+ = pIC50 4.00-4.99)
CC(=O)N1CCN(c2c[nH]c3ccccc23)CC1 [Compound 107]	+− (+− = pIC50 <4.00)
COc1cccc(C(=O)N2CCC(c3c[nH]c4cc(F)ccc34)CC2)n1 [Compound 273]	+ (+ = pIC50 4.00-4.99)
O=C(C1CC(=O)N(C2CCCC2)C1)N1CCC(c2c[nH]c3cc(F)ccc23)CC1 (centres unmarked) [Compound 276]	+ (+ = pIC50 4.00-4.99)
CCCc1cc(C(=O)N2CCC(c3c[nH]c4cc(F)ccc34)CC2)[nH]n1 [Compound 277]	+ (+ = pIC50 4.00-4.99)
Cn1nc(-c2ccccc2)cc1C(=O)N1CCC(c2c[nH]c3cc(F)ccc23)CC1 [Compound 279]	+ (+ = pIC50 4.00-4.99)
CCCn1cc(C(=O)N2CCC(c3c[nH]c4cc(F)ccc34)CC2)c(C)n1 [Compound 280]	+ (+ = pIC50 4.00-4.99)
O=C(N1CCC(c2c[nH]c3cc(F)ccc23)CC1)C1(c2ccccc2)CC1 [Compound 281]	+ (+ = pIC50 4.00-4.99)
COCCN1CC(C(=O)N2CCC(c3c[nH]c4cc(F)ccc34)CC2)CC1=O (centres unmarked) [Compound 283]	+ (+ = pIC50 4.00-4.99)
O=C(CC1CC1)N1CCC(c2c[nH]c3cc(F)ccc23)CC1 [Compound 284]	+ (+ = pIC50 4.00-4.99)
CC(C)S(=O)(=O)N1CCC(c2c[nH]c3cc(F)ccc23)CC1 [Compound 289]	+ (+ = pIC50 4.00-4.99)
O=S(=O)(C1CCCC1)N1CCC(c2c[nH]c3cc(F)ccc23)CC1 [Compound 291]	+ (+ = pIC50 4.00-4.99)
O=S(=O)(Cc1ccccc1)N1CCC(c2c[nH]c3cc(F)ccc23)CC1 [Compound 293]	+ (+ = pIC50 4.00-4.99)
O=S(=O)(N1CCC(c2c[nH]c3cc(F)ccc23)CC1)C(F)(F)F [Compound 296]	+ (+ = pIC50 4.00-4.99)
CC(=O)N1CCN(c2c[nH]c3ccccc23)CC1(C)C [Compound 299]	+ (+ = pIC50 4.00-4.99)
Fc1ccc2c(C3CCN(c4ccncc4)CC3)c[nH]c2c1 [Compound 301]	+ (+ = pIC50 4.00-4.99)
CC(=O)N1CCC(c2c[nH]c3cc(F)ccc23)CC1(C)C (centres unmarked) [Compound 316]	+ (+ = pIC50 4.00-4.99)
CC1(C)CC(c2c[nH]c3cc(F)ccc23)CCN1S(C)(=O)=O (centres unmarked) [Compound 317]	+ (+ = pIC50 4.00-4.99)
